From patent US6348445B1, “Biologically active peptides with reduced toxicity in animals and a method for preparing same” (priority 1992, dated 2002)
pIC50: −log10 of the molar value. Where no end group is shown, it is not given here.

How the values were obtained:
Type in all cases: cell-based
Conditions in all cases: 24 h
[1] = system: A-549 human lung carcinoma cells
Experimental: (§1) Human lung carcinoma cells, A-549 (ATCC), and human breast carcinoma cells, MDA-435 (from Sandoz), were grown in Ham's F12K medium (GIBCO-BRL) supplemented with […] fetal bovine serum. Human chronic myelogenous leukemia cells, K-562 (ATCC), were maintained in RPMI 1640 medium (GIBCO-BRL) supplemented with 10% fetal bovine serum. Human melanoma cell line, WM 1617 (from the Wistar Institute), was maintained in 2% Tumor media.
(§2) Cytotoxicity assays were performed on the cell lines described above using CytoLite (Packard Instrument Company) following the manufacture's instruction. Briefly, 2×10^4cells/well were seeded into black, 96-well ViewPlates (Packard Instrument Company) in 100 μl/well growth medium. Ser. dilutions of Magainin peptides were then added into the cells and the plates incubated for 24 hours in a humidified 5% CO2 atmosphere at 37° C. Following incubation, 25 μl/well of CytoLite activator solution was added followed by 125 μl/well of amplifier solution. Luminescence was measured on TopCount Microplate Scintillation and Luminescence counter (Packard Instrument Company) using a 1 second count time in SPC (single photon counting) mode at 25 ° C. All assays were performed in triplicate. The peptides tested in this assay were MSI-78(SEQ ID NO: 154 —NH2), MSI-1858(SEQ ID NO: 154 —NH2 Methane Sulfonate), MSI-344(SEQ ID NO: 154 —OH) and MSI-1857(SEQ ID NO: 154 —OH Methane Sulfonate). The results of these assays are shown in FIGS. 2-9 with the corresponding IC50 values in Table VIII. In all cases the activity of the methane sulfonated peptide was as good or better than the parent peptide as indicated by both the survival curves and the IC50 values.

[2] = system: K-562 human chronic myelogenous leukemia cells
Experimental: as §1, §2

[3] = system: MDA-435 human breast carcinoma cells
Experimental: as §1, §2

[4] = system: WM 1617 human melanoma cells
Experimental: as §1, §2

Sequence: GIGKFLKKAKKFGKAFVKILKK [MSI-344]
- pIC50 [1]: 5.00
- pIC50 [2]: 4.70
- pIC50 [3]: 5.10
- pIC50 [4]: 5.30
